ChEMBL document CHEMBL1137029, “Substituted benzylamino-6-(trifluoromethyl)pyrimidin-4(1H)-ones: a novel class of selective human A-FABP inhibitors” (Bioorg Med Chem Lett, 2004)

Molecular target: Fatty acid-binding protein, heart (Homo sapiens, UniProt P05413)
Sequence (P05413 whole entry): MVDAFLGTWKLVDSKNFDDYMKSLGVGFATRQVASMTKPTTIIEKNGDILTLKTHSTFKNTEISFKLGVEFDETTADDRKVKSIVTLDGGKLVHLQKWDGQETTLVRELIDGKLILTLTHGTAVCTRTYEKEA

IC50 | SMILES
> 100 µM | Oc1cc(C(F)(F)F)nc(NCc2ccc(Cl)cc2)n1
> 100 µM | CN(Cc1ccccc1)c1nc(C(F)(F)F)cc(=O)[nH]1
